Broadly, the IC50 is the midpoint of a concentration-inhibition curve.

Assay [1] addresses T1, SF3B1^WT (Homo sapiens, UniProt O75533+Q7RTV0). Description: Competitive binding assay (SPA, 3H-probe molecule) with Flag-tag SF3B1 from 293F cells. Conditions: one nM 3H-probe; Flag-tag SF3B1^WT from transfected 293F cells; read-out: IC50, competitive inhibition of binding of the 3H-probe molecule. Further details: expressed in transfected cells; host or cells: 293F cells (Life Technologies), transient transfection with pFLAG-CMV-2-SF3B1. How it is done:
The ability of E7107 to bind both SF3B1^WT and SF3B1^K700E proteins was evaluated in a competitive binding assay using Flag-tag SF3B1 proteins immunoprecipitated with anti-Flag antibody from transiently transfected 293F cells. Batch immobilization of antibody to beads was prepared by incubating 80 μg of anti-SF3B1 antibody (MBL International) and 24 mg anti-mouse PVT SPA scintillation beads (PerkinElmer) for 30 minutes. After centrifugation, the antibody-bead mixture was resuspended in PBS supplemented with PhosSTOP phosphatase inhibitor cocktail (Roche) and complete ULTRA protease inhibitor cocktail (Roche). Nuclear extracts were prepared by diluting 40 mg into a total volume of 16 mL PBS with phosphatase and protease inhibitors, and the mixture was centrifuged. The supernatant was transferred into a clean tube, and the antibody-bead mixture was added and incubated for two hours. The beads were collected by centrifuging, washed twice with PBS+0.1% Triton X-100, and resuspended with 4.8 mL of PBS. 100 μL binding reactions were prepared using slurry and varying concentrations of E7107. […] The mixture was incubated at room temperature for 15 minutes, and luminescence signals were read using a MicroBeta2 Plate Counter (PerkinElmer).

The target in assay [2] is T1, SF3B1^WT. The experiment in a line: In vitro splicing assay (IVS), Ad2 pre-mRNA substrate, nuclear extracts. In kind it is biochemical. Further details: expressed in transfected cells; host or cells: nuclear extract of 293F cells transfected with pFLAG-CMV-2-SF3B1 (the same assay was also run with Nalm-6 nuclear extract). Conditions: nuclear extracts from Nalm-6 (SF3B1^WT) cells or 293F cells expressing Flag-tag SF3B1^WT. How it is done:
E7107 is a small-molecule compound that inhibits splicing by targeting the U2 snRNP-associated complex SF3B (Kotake, Y. et al. “Splicing factor SF3b as a target of the antitumor natural product pladienolide.” Nat Chem Biol 3, 570-575, doi:10.1038/nchembio.2007.16 [2007]).
Nuclear extracts were prepared from 293F cells transfected with pFLAG-CMV-2-SF3B1 plasmids, or from isogenic Nalm-6 cells (SBH Sciences). The plasmids were generated by cloning the mxSF3B1 gene into the HindIII and KpnI sites of pFLAG-CMV2 (Sigma), and the mutations mxSF3B1^K700E, mxsF3B1^R1074H and mxSF3B1^K700E-R1074H were introduced using […]. Cell pellets were resuspended in hypotonic buffer (10 mM HEPES pH 7.9, 1.5 mM MgCl2, 10 mM KCl, 0.2 mM PMSF, and 0.5 mM DTT; for Nalm-6 cells, 40 mM KCl was used). The suspension was brought up to a total of five packed cell volumes (PCV). After centrifugation, the supernatant was discarded, and the cells were brought up to 3 PCV with hypotonic buffer, and incubated on ice for 10 minutes. Cells were lysed using a dounce homogenizer and then centrifuged. […] Protein concentration was determined using NanoDrop 8000 UV-Vis spectrophotometer (Thermo Scientific). […]

Structures are written as SMILES.

T1 sequence (Q15393 whole entry): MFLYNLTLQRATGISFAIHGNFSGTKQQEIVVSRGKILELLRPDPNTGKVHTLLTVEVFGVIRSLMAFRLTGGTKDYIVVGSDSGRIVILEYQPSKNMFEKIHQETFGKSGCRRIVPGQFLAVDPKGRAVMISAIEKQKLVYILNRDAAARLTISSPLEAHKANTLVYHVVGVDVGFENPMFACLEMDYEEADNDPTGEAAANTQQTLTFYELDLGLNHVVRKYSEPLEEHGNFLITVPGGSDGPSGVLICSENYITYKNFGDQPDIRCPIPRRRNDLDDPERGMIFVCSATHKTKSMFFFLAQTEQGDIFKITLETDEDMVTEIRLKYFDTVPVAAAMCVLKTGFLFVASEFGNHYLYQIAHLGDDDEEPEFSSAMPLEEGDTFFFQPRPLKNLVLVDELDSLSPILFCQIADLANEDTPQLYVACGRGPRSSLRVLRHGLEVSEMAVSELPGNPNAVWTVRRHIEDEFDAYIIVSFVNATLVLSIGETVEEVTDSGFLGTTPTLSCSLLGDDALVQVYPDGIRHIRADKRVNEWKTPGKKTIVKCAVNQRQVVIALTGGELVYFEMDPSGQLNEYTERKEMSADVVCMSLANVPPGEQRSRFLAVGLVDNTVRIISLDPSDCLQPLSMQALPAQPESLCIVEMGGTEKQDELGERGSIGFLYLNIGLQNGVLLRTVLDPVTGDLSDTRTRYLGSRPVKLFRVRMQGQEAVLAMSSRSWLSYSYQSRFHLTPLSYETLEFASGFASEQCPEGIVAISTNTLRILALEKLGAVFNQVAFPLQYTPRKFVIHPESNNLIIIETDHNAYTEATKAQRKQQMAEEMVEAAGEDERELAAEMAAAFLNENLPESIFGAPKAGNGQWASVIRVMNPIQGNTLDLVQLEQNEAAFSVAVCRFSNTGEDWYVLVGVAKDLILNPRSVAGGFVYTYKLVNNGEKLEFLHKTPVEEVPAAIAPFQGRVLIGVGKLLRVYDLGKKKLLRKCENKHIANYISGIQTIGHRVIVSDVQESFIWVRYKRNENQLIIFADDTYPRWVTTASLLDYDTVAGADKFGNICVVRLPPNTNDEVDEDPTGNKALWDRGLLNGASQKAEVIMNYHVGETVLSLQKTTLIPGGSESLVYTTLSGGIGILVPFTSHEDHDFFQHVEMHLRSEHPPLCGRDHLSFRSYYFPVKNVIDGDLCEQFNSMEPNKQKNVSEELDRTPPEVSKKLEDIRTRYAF
T1 sequence (Q9BWJ5 whole entry, further chain): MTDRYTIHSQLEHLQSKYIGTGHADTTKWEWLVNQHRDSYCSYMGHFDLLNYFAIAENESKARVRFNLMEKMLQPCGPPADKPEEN
T1 sequence (Q7RTV0 whole entry): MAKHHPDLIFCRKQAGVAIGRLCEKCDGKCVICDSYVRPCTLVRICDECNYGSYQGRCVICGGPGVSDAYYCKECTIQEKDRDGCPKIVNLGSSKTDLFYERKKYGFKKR
T1 sequence (O75533 whole entry): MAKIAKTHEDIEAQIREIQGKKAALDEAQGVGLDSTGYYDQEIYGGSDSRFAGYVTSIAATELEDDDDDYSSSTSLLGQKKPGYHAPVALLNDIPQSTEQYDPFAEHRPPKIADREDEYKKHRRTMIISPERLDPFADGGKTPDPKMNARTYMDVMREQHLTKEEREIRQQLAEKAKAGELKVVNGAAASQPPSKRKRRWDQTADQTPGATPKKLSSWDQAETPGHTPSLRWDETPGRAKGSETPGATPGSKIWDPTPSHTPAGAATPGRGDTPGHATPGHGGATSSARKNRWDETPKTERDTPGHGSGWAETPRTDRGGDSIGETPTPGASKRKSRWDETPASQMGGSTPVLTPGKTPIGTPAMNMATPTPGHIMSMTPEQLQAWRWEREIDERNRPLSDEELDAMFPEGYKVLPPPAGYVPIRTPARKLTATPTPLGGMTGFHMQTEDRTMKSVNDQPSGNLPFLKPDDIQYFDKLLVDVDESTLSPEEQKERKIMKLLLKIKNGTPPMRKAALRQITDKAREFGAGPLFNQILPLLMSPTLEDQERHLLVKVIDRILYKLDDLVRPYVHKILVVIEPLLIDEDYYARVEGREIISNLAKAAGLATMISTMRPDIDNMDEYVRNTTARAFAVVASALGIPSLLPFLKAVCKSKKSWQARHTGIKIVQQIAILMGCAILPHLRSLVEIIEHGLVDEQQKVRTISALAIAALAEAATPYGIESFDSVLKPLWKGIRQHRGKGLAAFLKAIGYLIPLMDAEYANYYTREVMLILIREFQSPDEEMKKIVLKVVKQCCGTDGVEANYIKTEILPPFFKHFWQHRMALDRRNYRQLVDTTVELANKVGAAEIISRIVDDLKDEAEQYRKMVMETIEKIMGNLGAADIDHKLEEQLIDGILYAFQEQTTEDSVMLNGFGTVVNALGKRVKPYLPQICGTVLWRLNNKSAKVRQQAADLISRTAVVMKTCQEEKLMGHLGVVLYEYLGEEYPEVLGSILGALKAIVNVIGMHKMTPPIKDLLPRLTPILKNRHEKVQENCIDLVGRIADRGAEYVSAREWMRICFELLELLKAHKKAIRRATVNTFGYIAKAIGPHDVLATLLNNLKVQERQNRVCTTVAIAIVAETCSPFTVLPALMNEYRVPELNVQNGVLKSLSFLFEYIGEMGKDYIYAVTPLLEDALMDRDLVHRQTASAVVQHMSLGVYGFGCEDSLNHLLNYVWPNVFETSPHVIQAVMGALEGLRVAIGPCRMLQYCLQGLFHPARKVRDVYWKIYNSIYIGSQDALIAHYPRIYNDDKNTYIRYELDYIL

For the molecule `CC[C@H](O)[C@@H](C)[C@H]1O[C@@H]1C[C@@](C)(O)/C=C/C=C(\C)[C@H]1OC(=O)C[C@H](O)CC[C@@](C)(O)[C@@H](OC(=O)N2CCN(C3CCCCCC3)CC2)/C=C/[C@@H]1C` [Compound E7107], the IC50 in assay [1] is 13 nM. Besides, the “inhibition of splicing of Ad2 pre-mRNA in nuclear extracts” value in assay [2] is “able to inhibit splicing”.

Source of the values: patent US11761045B2, “Splice variants associated with neomorphic SF3B1 mutants” (Eisai R&D Management Co., Ltd., priority 2015, dated 2023).
